Source: ChEMBL document CHEMBL4265874 (Eur J Med Chem, 2017)
Values belong to the molecule of their own block, whether it stands above or below them.

Legend:
in vitro [1] = conditions: dog, MDCK
Description: (§1) Intrinsic absorptive permeability from basolateral side to apical side of dog RRCK cells

in vivo [2] = conditions: rat, brain / plasma
Description: Ratio of fAUC in brain to plasma in rat

in vivo [3] = conditions: rat, CSF / free plasma
Description: Ratio of AUC in CSF to free plasma in rat

in vitro [4] = conditions: dog, MDCK; remark: listed apart in the source
Description: (§2) Intrinsic absorptive permeability from apical side to basolateral side of dog RRCK cells

in vitro [5] = conditions: human, liver microsomes
Description: Intrinsic clearance in human liver microsomes

[6] = dog, mdckii-le
Description: as §1

physchem = conditions: octanol/water, pH 7.4
[7] = dog, mdckii-le; remark: listed apart in the source
Description: as §2

[8] = biological target: Proto-oncogene tyrosine-protein kinase ROS (Homo sapiens, UniProt P08922, G2032R)
Sequence of Proto-oncogene tyrosine-protein kinase ROS (P08922 28-2347 G2032R limits assumed): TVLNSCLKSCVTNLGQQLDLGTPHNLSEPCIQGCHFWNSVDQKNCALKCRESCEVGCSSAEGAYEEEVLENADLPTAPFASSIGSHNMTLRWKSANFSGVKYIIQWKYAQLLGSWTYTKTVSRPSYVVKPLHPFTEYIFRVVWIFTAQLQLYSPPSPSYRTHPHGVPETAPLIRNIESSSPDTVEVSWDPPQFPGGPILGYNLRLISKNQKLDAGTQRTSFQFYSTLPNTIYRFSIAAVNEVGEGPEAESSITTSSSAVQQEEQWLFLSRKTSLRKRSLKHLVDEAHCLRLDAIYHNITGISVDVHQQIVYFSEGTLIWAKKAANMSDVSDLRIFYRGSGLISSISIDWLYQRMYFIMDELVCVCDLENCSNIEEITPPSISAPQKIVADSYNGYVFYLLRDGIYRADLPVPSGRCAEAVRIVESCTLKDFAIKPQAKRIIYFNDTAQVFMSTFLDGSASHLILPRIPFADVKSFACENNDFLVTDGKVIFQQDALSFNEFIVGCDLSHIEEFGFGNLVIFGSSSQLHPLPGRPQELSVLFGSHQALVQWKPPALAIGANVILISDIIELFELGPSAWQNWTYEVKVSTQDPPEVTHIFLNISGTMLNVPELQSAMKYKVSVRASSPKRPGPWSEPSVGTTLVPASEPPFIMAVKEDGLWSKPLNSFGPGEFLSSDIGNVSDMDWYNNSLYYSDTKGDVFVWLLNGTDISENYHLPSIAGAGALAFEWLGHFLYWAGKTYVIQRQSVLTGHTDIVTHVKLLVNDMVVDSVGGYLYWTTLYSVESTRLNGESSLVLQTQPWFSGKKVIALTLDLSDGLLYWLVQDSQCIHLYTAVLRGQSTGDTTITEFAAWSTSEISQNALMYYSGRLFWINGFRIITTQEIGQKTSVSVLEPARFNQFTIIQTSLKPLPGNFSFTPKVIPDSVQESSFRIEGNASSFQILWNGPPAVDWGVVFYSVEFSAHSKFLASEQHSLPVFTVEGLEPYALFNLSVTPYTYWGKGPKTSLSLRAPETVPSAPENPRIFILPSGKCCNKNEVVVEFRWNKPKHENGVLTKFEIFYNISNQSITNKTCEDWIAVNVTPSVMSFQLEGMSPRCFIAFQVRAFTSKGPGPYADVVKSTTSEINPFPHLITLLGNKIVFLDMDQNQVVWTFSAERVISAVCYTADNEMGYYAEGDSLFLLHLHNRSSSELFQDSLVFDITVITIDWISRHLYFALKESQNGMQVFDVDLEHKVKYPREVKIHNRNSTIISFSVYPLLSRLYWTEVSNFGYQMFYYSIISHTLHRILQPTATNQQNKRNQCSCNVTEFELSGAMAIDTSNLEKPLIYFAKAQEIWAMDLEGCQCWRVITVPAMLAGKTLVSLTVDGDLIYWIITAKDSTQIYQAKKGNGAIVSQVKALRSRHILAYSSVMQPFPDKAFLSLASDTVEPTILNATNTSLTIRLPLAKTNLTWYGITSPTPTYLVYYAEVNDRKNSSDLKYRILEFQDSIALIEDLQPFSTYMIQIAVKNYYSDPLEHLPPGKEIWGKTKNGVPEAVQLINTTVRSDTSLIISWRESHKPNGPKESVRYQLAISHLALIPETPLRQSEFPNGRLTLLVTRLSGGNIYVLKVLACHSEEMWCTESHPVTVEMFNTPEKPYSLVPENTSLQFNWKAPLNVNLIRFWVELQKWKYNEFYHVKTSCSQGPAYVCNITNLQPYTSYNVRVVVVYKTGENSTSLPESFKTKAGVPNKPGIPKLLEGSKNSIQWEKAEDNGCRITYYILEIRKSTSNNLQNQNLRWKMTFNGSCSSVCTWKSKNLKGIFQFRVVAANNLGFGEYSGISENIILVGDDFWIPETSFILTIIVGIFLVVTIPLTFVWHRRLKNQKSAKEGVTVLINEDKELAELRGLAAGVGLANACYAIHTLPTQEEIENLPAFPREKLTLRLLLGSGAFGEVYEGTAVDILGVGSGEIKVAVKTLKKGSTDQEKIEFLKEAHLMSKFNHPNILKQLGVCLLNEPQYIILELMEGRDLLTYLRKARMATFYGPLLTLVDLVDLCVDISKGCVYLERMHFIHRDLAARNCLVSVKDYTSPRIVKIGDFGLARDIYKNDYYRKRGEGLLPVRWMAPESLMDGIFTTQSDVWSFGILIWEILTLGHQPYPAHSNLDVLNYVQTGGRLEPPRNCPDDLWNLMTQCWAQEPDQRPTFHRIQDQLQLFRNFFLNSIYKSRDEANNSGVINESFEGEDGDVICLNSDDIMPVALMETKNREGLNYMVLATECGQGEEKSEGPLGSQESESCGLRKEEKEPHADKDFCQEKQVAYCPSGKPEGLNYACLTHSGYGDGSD

Structure (SMILES): C[C@H]1Oc2cc(cnc2N)-c2c(nn(C)c2C#N)CN(C)C(=O)c2ccc(F)cc21 [LORLATINIB]
Papp B→A (in vitro [1]): 28 ×10⁻⁶ cm/s
Kp uu (in vivo [2]): 0.21
Kp uu (in vivo [3]): 0.31
Papp A→B (in vitro [4]): 19.3 ×10⁻⁶ cm/s

CLint scaled (in vitro [5]): 8.6 mL/min/kg
Papp [6]: 28.3 ×10⁻⁶ cm/s
logD (physchem): 2.2
Papp [7]: 8.1 ×10⁻⁶ cm/s
Structure (SMILES): Cc1[nH][n+](C)c2c1-c1cnc(N)c(c1)O[C@H](C)c1cc(F)ccc1C(=O)N(C)C2

Ki [8]: > 3 µM
Structure (SMILES): CCc1cc2c(cc1N1CCC(N3CCOCC3)CC1)C(C)(C)c1[nH]c3cc(C#N)ccc3c1C2=O [ALECTINIB]
